Results as given in patent publication US4999366A, “Isoxazolidine-3,5-diones, pharmaceutical compositions and method of treatment” (The North Carolina Central Univ., priority 1990, dated 1991).
Like-named read-outs stand apart in the source and are kept apart here.

Key:
[1] = system: serum triglyceride; test: Serum triglyceride in normal CF1 mice (Example 10); type: in vivo, CF1 male mice; details: Mus musculus, 384 h, 20 mg/kg/day ip, Day 16, ± standard deviation, read-out: Serum Triglyceride, Day 16 (percent control)
Procedure: (§1) The ten compounds listed in Table II below were tested for their hypolipidemic activity in CF1 mice.
(§2) Compounds A-J as defined above, were suspended in an aqueous 1percent carboxymethylcellulose (CMC) solution and homogenized. Each of the so prepared compounds were administered to a group of six CF1 male mice, each weighing approximately 25 grams, intraperitioneally for 16 days. Each of these compounds were provided in a dosage of 20 mg/kg/day ip. On Days 9 and 16 blood was obtained by tail vein bleeding. The blood serum so obtained was separated by centrifugation for three minutes. Serum cholesterol levels were determined by a modification of the Liebermann-Burchard reaction (Ness, Clin. Chim. Acta., Vol. 10, 229[1964]). Serum triglyceride levels were determined on Day 16 by use of the Fisher, Hycel Triglyceride Test Kit.
(§3) In addition to the above-described treated mice, an untreated control group of six mice were similarly tested on Days 9 and 16 to determine their serum cholesterol and trigylceride blood levels. Based on the results obtained for the untreated control group, the percent control, based on serum cholesterol and serum triglyceride levels of the treated mice compared to the untreated mice, was obtained. Table III reports this percent control, including standard deviation, indicating the level of confidence of these numbers.

[2] = system: serum cholesterol; test: Serum cholesterol in normal CF1 mice (Example 10); type: in vivo, CF1 male mice; details: Mus musculus, 20 mg/kg/day ip
Procedure: as §1, §2, §3

[3] = system: serum cholesterol; test: Serum cholesterol in normal rats (Example 12); type: in vivo, Sprague-Dawley male rats; details: 20 mg/kg/day orally
Procedure: (§4) A solution of Compound D, 2-(3,4,5-trimethoxybenzoyl)-4,4-diethylisoxazolidine-3,5-dione, was suspended in an aqueous solution of 1% CMC, homogenized and administered orally to six Sprague-Dawley male rats, which each weighed approximately 350 grams. Similarly, six Sprague-Dawley male rats of approximately the same weight were administered similar volumes of the same aqueous 1% CMC solution without the active agent, Compound D, also orally. In each case, administration was by intubation needle at 20 mg/kg/day for 14 days. In addition, as a control, a similar group of six male Sprague-Dawley rats were untreated.
(§5) On Days 7 and 14, blood was obtained from each of the rats of the three groups by tail vein bleeding. The blood obtained was separated by centrifugation for three minutes. Serum cholesterol and triglyceride levels were determined in accordance with the procedure of Example 10.

[4] = system: serum triglyceride; test: Serum triglyceride in hyperlipidemic mice on atherogenic diet (Example 11); type: in vivo, CF1 male mice; details: hyperlipidemic CF1 mice, 20 mg/kg/day ip, Day 14, from 367 mg/dl
Procedure: (§6) A group of six CF^1 male mice (about 25 g) was placed on a commercial diet (U.S. Biochemical Corporation BAsal Atherogenic Test Diet) which produced a "hyperlipidemic" state. That is, the average serum cholesterol level in the group of treated mice was raised from 122 to 375 mg % and triglyceride levels were raised from 137 to 367 mg/dl.
(§7) Upon reaching these hyperlipidemic levels, the mice were administered Compound D in a concentration of 20 mg/kg/day intraperitoneally for 14 days while continuing the diet. On Day 14, serum cholesterol and serum triglyceride levels were measured in accordance with the procedure of Example 10.

[5] = system: serum triglyceride; test: Serum triglyceride in normal rats (Example 12); type: in vivo, Sprague-Dawley male rats; details: 20 mg/kg/day orally
Procedure: as §4, §5

[6] = system: serum cholesterol; test: Serum cholesterol in hyperlipidemic mice on atherogenic diet (Example 11); type: in vivo, CF1 male mice; details: hyperlipidemic CF1 mice, 20 mg/kg/day ip, Day 14, from 375 mg %
Procedure: as §6, §7

[7] = system: plasma lipid level; details: rats; cited from earlier work
[8] = 216 h, Day 9, ± standard deviation, read-out: Serum Cholesterol, Day 9 (percent control)
[9] = 384 h, Day 16, ± standard deviation, read-out: Serum Cholesterol, Day 16 (percent control)

Structure (SMILES)	response vs control in vivo at 20 mg/kg/day [1]	response vs control in vivo at 20 mg/kg/day [2, 8]	response vs control in vivo at 20 mg/kg/day [2, 9]	other results
C=C(C)N1OC(=O)C(CC)(CC)C1=O [A]	71 ± 6%	70 ± 7%	75 ± 4%	
C=C(c1ccccc1)N1OC(=O)C(CC)(CC)C1=O [B, 2-(1-phenylethenyl)-4,4-diethylisoxazolidine-3,5-dione]	71 ± 4%	71 ± 5%	63 ± 6%	
CCC1(CC)C(=O)ON(C2(N3OC(=O)C(CC)(CC)C3=O)CCCCC2)C1=O [C, 1,1-bis-[2-(4,4-diethylisoxazolidine-3,5-dione)]cyclohexane]	77 ± 9%	86 ± 7%	73 ± 7%	
CCC1(CC)C(=O)ON(C(=O)c2cc(OC)c(OC)c(OC)c2)C1=O [Compound D, 2-(3,4,5-trimethoxybenzoyl)-4,4-diethylisoxazolidine-3,5-dione]	66 ± 6%	82 ± 6%	51 ± 5%	serum cholesterol level compared to control rats, Day 7 ([3]; Day 7): 77%; serum cholesterol level compared to control rats, Day 14 ([3]; Day 14): 61%; serum triglyceride level after treatment [4]: 187 mg/dL; serum triglyceride level remaining, percent of pre-treatment level [4]: 51%; average serum triglyceride level compared to control, Day 7 ([5]; Day 7): 64%; serum triglyceride level compared to control, Day 14 ([5]; Day 14): 43%; serum cholesterol level after treatment [6]: 150 mg %; serum cholesterol remaining, percent of pre-treatment level [6]: 40%
CCC1(CC)C(=O)ON(C(=O)c2ccccc2)C1=O [E, 2-benzoyl-4,4-diethylisoxazolidine-3,5-dione]	63 ± 7%	77 ± 5%	53 ± 6%	
CCC1(CC)C(=O)ON(C(C)(C)N2OC(=O)C(CC)(CC)C2=O)C1=O [F, 2,2-bis-[2-(4,4-diethylisoxazolidine-3,5-dione)]propane]	68 ± 8%	95 ± 4%	57 ± 6%	
CCC1(CC)C(=O)ON(C(=O)c2ccc(OC)c(OC)c2)C1=O [G, 2-(3,4-dimethoxybenzoyl)-4,4-diethylisoxazolidine-3,5-dione]	84%	81%	77%	
CCC1(CC)C(=O)ON(C(=O)c2ccc(OC)cc2)C1=O [H, 2-(4-methoxybenzoyl)-4,4-diethylisoxazolidine-3,5-dione]	63%	89%	62%	
CCC1(CC)C(=O)ON(C(=O)c2ccc(C)cc2)C1=O [I, 2-(4-methylbenzoyl)-4,4-diethylisoxazolidine-3,5-dione]	86%	73%	46%	
CCC1(CC)C(=O)ON(C(=O)c2ccc(Cl)cc2)C1=O [J, 2-(4-chlorobenzoyl)-4,4-diethylisoxazolidine-3,5-dione]	76%	64%	45%	
O=C(O)c1cc(=O)[nH]c(=O)[nH]1 [orotic acid]				plasma lipid level [7]: decrease the plasma lipid level in rats
